“Also recorded” adds a separate entry of the source.
Tested on: AGPPase (soluble and particulate isoforms)
Assay: AGPPase enzymatic assay (two-step spectrophotometric determination of G1P produced from ADPG)
Assay type: biochemical, barley (Hordeum vulgare), tomato (Lycopersicon sculentum)
Details: for Km / affinity compared with ADP-glucose: Km of ADP-glucose relative to this substrate

Compound | Inhibition of AGPPase | Hydrolysis / recognition as substrate by AGPPase | also measured
Nc1ncnc2c1ncn2[C@@H]1O[C@H](COP(=O)(O)OP(=O)(O)OP(=O)(O)O)[C@@H](O)[C@H]1O [ATP] | inhibited | – | –
O=[N+]([O-])c1ccc(OP(=O)(O)Oc2ccc([N+](=O)[O-])cc2)cc1 [bis-PNPP, bis-paranitrophenylphosphate] | – | recognise | –
OCCS [β-mercaptoethanol] | – | – | Effect of typical phosphodiesterase inhibitors (reducing and chelating agents) on AGPPase activity: not affected
Nc1ncnc2c1ncn2[C@@H]1O[C@H](COP(=O)(O)OS(=O)(=O)O)[C@@H](O)[C@H]1O [APS, adenosine 5′phosphosulphate] | – | recognises; also recorded: catalyse the hydrolysis; also recorded: preferred substrates | Km / affinity compared with ADP-glucose: similar
Nc1nc2c(ncn2[C@@H]2O[C@H](COP(=O)(O)OP(=O)(O)O[C@H]3O[C@H](CO)[C@@H](O)[C@H](O)[C@H]3O)[C@@H](O)[C@H]2O)c(=O)[nH]1 [GDP-glucose] | – | recognise | –
Nc1nc2c(ncn2[C@@H]2O[C@H](COP(=O)(O)OP(=O)(O)O[C@H]3O[C@H](CO)[C@@H](O)[C@H](O)[C@@H]3O)[C@@H](O)[C@H]2O)c(=O)[nH]1 [GDP-mannose] | – | recognises | –
arsenate | strongly inhibited | – | –
Nc1ncnc2c1ncn2[C@@H]1O[C@H](COP(=O)(O)O)[C@@H](O)[C@H]1O [AMP] | inhibited | do not hydrolyse | –
O=C(O)[C@H](O)COP(=O)(O)O [3-phosphoglycerate] | inhibited | do not hydrolyse | –
Nc1ncnc2c1ncn2[C@@H]1O[C@H](COP(=O)(O)OP(=O)(O)O)[C@@H](O)[C@H]1O [ADP] | inhibited | – | –
[O]=[Mo](=[O])([O-])[O-] [molybdate] | strongly inhibited | – | –
Nc1ncnc2c1ncn2[C@@H]1O[C@H](COP(=O)(O)OS(=O)(=O)O)[C@@H](OP(=O)(O)O)[C@H]1O [PAPS, 3′-phosphoadenosine 5′-phosphosulphate] | – | recognises; also recorded: catalyse the hydrolysis | –
Nc1ncnc2c1ncn2[C@@H]1O[C@H](COP(=O)(O)OP(=O)(O)OC[C@H]2OC(O)[C@H](O)[C@@H]2O)[C@@H](O)[C@H]1O (some centres unmarked) [ADP-ribose] | – | – | Km / affinity compared with ADP-glucose: four of five times lower
O=C[C@H](O)[C@@H](O)[C@H](O)[C@H](O)COP(=O)(O)O [G6P, glucose-6-phosphate] | – | do not hydrolyse | –
Nc1ncnc2c1ncn2[C@@H]1O[C@H](COP(=O)(O)OP(=O)(O)O[C@H]2O[C@H](CO)[C@@H](O)[C@H](O)[C@H]2O)[C@@H](O)[C@H]1O [ADPG, ADPglucose] | – | catalyse the hydrolysis; also recorded: preferred substrates | Km (read-out: Michaelis-Menten constant (Km)): 500 µM
Nc1ncnc2c1ncn2[C@@H]1O[C@H](COP(=O)(O)OP(=O)(O)O[C@H]2O[C@H](CO)[C@@H](O)[C@H](O)[C@@H]2O)[C@@H](O)[C@H]1O [ADP-mannose] | – | recognises | –

Source: patent publication US7205150B2, “Transgenic plants over-expressing plant ADP-glucose pyrophosphatase” (Universidad Publica de Navarra, priority 2000, dated 2007)
